In patent publication US9302993B2, “8-hydroxy quinoline derivatives” (PRANA BIOTECHNOLOGY LIMITED, priority 2002, dated 2016):
Where two headings read alike, the source gives them in different places.

Tests used:
[1] = test system: Neuronal cortical cells treated with Aβ1-42; assay: Assay for Aβ neurotoxicity and Aβ neuroprotection (Assay 3(c)); assay type: cell-based, mouse; details: 20 uM Aβ1-42, 4 days, MTS
Protocol: Media was then replaced with Neurobasal media (Invitrogen Life Technologies) and B27 supplements (Invitrogen Life Technologies). Cultures were maintained at 37° C. in 5% CO2. Prior to experimentation, the culture medium was replaced with Neurobasal media and B27 minus antioxidants (Invitrogen Life Technologies).
(c) Assay for Aβ Neurotoxicity and Aβ Neuroprotection
Neuronal cortical cells were cultured for five days as per Assay 2. On day six the neurobasal (NB) media (Invitrogen Life Technologies) and B27 supplement (Invitrogen Life Technologies) were replaced with NB media and B27 supplement (no antioxidants). On day six, test compounds were individually added to the neuronal cell cultures:
Aβ was initially dissolved in 20 mM NaOH to a concentration of 1 mM and sonicated for 5 minutes. The peptide was then diluted in H2O and 10×PBS to a final concentration of 200 uM Aβ in 1×PBS. The peptide was again sonicated for 5 minutes and then spun at 14000 rpm for 5 min and transferred to a fresh tube.
The test compounds were dissolved in 100% DMSO to a concentration of 2.5 mM (10 mM if excess compound was weighed out per vial—then diluted to 2.5 mM). […] Test compounds were not added directly to cells, instead they were added to a 48 well ‘Drug Plate’ as comprised below:
The Drug Plate was incubated at 37° C. for 15 mins. 200 ul of each well was added in triplicate to the corresponding cell plate. The cell plate was incubated at 37 C, for 4 days.
On the 4th day after treating the cells the assay is completed by adding MTS to the cells.

[2] = test system: Aβ in extract of tissue from post mortem human AD brain; assay: Human brain amyloid solubilisation assay (Assay 9, BAS); assay type: biochemical
Protocol: Assay 9. Human Brain Amyloid Solubilisation Assay
This assay was performed in order to assess the ability of a test compound to mobilise Aβ from the insoluble to the soluble phase of an extract of tissue from post mortem human AD brain.
Up to 0.5 g of plaque-bearing cortex without meninges was homogenized using a DIAX 900 homogenizer (Heudolph and Co, Kelheim, Germany) or other suitable device for three 30-second periods at full speed in 2 ml of ice-cold phosphate-buffered saline, pH 7.4. To obtain the phosphate-buffered saline-extractable fraction, the homogenate was centrifuged at 100,000×g for 30 min and the supernatant removed. Alternatively, the tissue was freeze dried then pulverised to form a powder which was then weighed out into aliquots for extraction as above. Supernatant, either freeze-dried and resuspended or in unconcentrated form, was dissolved in 200 μl of Tris-Tricine sodium dodecyl sulfate (SDS) sample buffer pH 8.3 containing 8% SDS, 10% 2-mercaptoethanol. Aliquots (10 μl) were then boiled for 10 minutes before SDS-polyacrylamide gel electrophoresis. The insoluble fraction of the cortical samples was obtained by resuspending the initial pelleted sample in 1 ml of phosphate-buffered saline. A 50-μl aliquot of this suspension was then boiled in […] of sample buffer as above.
Tris-Tricine polyacrylamide gel electrophoresis was performed by loading appropriately diluted samples on to 10% to 20% gradient gels (Novex, San Diego, Calif.) followed by transfer on to 0.2-μm nitrocellulose membrane (Bio-Rad, Hercules, Calif.). Aβ was detected by using monoclonal antibody W02, which detects residues 5 through 8, […] (or another suitable antibody) in conjunction with horseradish peroxidase-conjugated rabbit anti-mouse IgG (Dako, Denmark), and visualized by using enhanced chemiluminescence (eg ECL; Amersham Life Science, Buckinghamshire, UK). Each gel included three lanes containing 0.5, 1, and 2 ng of synthetic Aβ40 (Keck Laboratory, Yale University, New Haven, Conn.) as reference standards.
Blot films were scanned by using a suitable imaging system such as the UVP gel documentation system, and densitometry performed using suitable software, eg UVP Labworks. The dynamic range of the film/scanner was determined by using a step tablet (No. 911ST600, Kodak, Rochester N.Y.), a calibrated film exposed by the manufacturer to provided steps of known increasing intensity. The quantifiable range of signal intensity for densitometric analysis of the mono- and dimeric Aβ bands was based on the comparison with a curve obtained by scanning and densitometry of the step tablet.
All samples were analysed at least twice, and gel loadings and dilutions were adjusted to fit within the quantifiable region of the standard curve. […] The insoluble Aβ being comprised of the pelletable fraction derived from the insoluble amyloid plaque from the above cortical samples and the soluble fraction comprising monomeric and/or oligomeric soluble Aβ.

Neuronal cortical cells = assay: Assay for test compound cytoxicity, MTS (Assay 3(d)); assay type: cell-based, mouse
[3] = solubilising plaques relative to PBS
[4] = BL6J×129sv, mouse, 4 days, 1 uM
[5] = BL6J×129sv, mouse, 4 days, 10 uM

SMILES | % inhibition Abeta toxicity [1] | BAS Score [2, 3] | Test Compound Cytoxicity 0.1 um (Neuronal cortical cells; BL6J×129sv, mouse, 4 days) | Test Compound Cytoxicity 1 uM (Neuronal cortical cells; [4]) | Test Compound Cytoxicity 10 uM (Neuronal cortical cells; [5]) | Viable 10 uM (Neuronal cortical cells; [5]) | BAS Score [2] | Cell viability (% viable cells, MTS) (Neuronal cortical cells; 1 uM, 4 days, in %) | Viable 10 uM (Neuronal cortical cells; 10 uM test compound, repeated lines = repeat determinations, in %) | Cell viability (% viable cells, MTS) (Neuronal cortical cells; 10 uM, 4 days, in %) | Cell viability (% viable cells, MTS) (Neuronal cortical cells; 0.1 um, 4 days)
O=C(CNC(=O)c1cc(O)c2cccc(O)c2n1)NCCc1c[nH]cn1 [compound 987] | 5% | + | 92% | 90 | 87 | 89.03 |  |  |  |  | 
NCc1ccc2cccc(O)c2n1 [compound 968] | 6% | ++ | 103% | 87 | 82 | 97.12 |  |  |  |  | 
Oc1cccc2ccc(-c3ccccn3)nc12 [compound 1006] | 7% | ++ |  | 92 | 52 |  |  |  |  |  | 
Oc1ccccc1-c1cc(Cl)c2cccnc2c1O [compound 947] | 3% | + | 100% | 94 | 51 | 70.4 |  |  |  |  | 
Nc1ccccc1NC(=O)c1cc(O)c2cccc(O)c2n1 [compound 986] | 7% | + | 96% | 85 | 60 | 81.73 |  |  |  |  | 
CN(CCc1ccccn1)Cc1ccc2cccc(O)c2n1 [compound 990] | 18% | + | 95% | 88 | 57 | 57.45 |  |  |  |  | 
Oc1c(Br)cc(-c2cc(F)cc(F)c2)c2cccnc12 [compound 853] | 31% | + | 93% | 79 | 39 | 94.79 |  |  |  |  | 
Oc1c(-c2ccccc2C(F)(F)F)cc(Cl)c2cccnc12 [compound 864] | 13% | + | 100% | 88 | 37 | 93.12 |  |  |  |  | 
Oc1cccc2cccnc12 [compound 42] | 14% |  |  |  |  |  | + | 87 | 97.66 | 79 | 90%
Cc1cc(C)c2cccnc2c1O [compound 59] | 22% | + | 89% | 97 | 55 |  |  |  |  |  | 
O/N=C/c1ccc2cccc(O)c2n1 [compound 969, 8-Hydroxy-quinoline-2-carboxaldehyde Oxime] | 2% | + | 91% | 92 | 90 | 94.55 |  |  |  |  | 
